Reference: patent US12180187B2, “1-phenyl-5-azinylpyrazolyl-3-oxyalkyl acids and their use for controlling unwanted plant growth” (BAYER AKTIENGESELLSCHAFT, priority 2019, dated 2024)

What was measured:
ABUTH [1] = assay: Post-emergence action at 320 g/ha against ABUTH; type: in vivo, Abutilon theophrasti; settings: visual rating about 3 weeks after treatment vs untreated controls
From the text: (§1) Accordingly, the compounds of the invention have good herbicidal action against a broad spectrum of weed grasses and broad-leaved weeds and are therefore suitable for controlling unwanted vegetation by the post-emergence method. • b) Seeds of monocotyledonous and dicotyledonous weeds and crop plants are placed in sandy loam in plastic or organic planting pots, covered with soil and cultivated in a greenhouse under controlled growth conditions. 2 to 3 weeks after sowing, the test plants are treated at the one-leaf stage. The compounds of the invention, formulated in the form of wettable powders (WP) or as emulsion concentrates (EC), are then sprayed onto the green parts of the plants as aqueous suspension or emulsion with addition of 0.5% additive at a water application rate of 600 l/ha (converted). After the test plants have been kept in the greenhouse under optimum growth conditions for about 3 weeks, the activity of the preparations is rated visually in comparison to untreated controls. For example, 100% activity=the plants have died, 0% activity=like control plants. Tables 39 to 49 below show the effects of selected compounds of the general formula (I) according to Tables 1 and 2 on various harmful plants and at an application rate corresponding to 320 g/ha, which were obtained by the experimental procedure mentioned above.

ALOMY [2] = assay: Pre-emergence action against ALOMY, 1280 g/ha; type: in vivo, Alopecurus myosuroides; settings: visual scoring after about 3 weeks vs untreated controls, 100% = plants have died, 0% = like control plants
Outline: (§2)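 Each pot was doubly sown in sandy loam and covered, then its soil surface was treated with compound suspension or emulsion containing 0.5% additive at 600 L/ha water. Plants grew in a greenhouse; effect was rated visually as percentages versus controls after about 3 weeks.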

POAAN [3] = assay: Post-emergence action against POAAN, 1.28 kg/ha; type: in vivo, Poa annua; settings: dosage 1280 g/ha, visual rating about 3 weeks after treatment vs untreated controls
Outline: (§3)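 Spray at one-leaf stage with WP/EC + 0.5% additive, 600 L water/ha. Greenhouse, optimum conditions, ~3 wk. Visual % control vs untreated; 0 = no effect, 100 = dead.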

DIGSA [4] = assay: Pre-emergence action against DIGSA, 1280 g/ha; type: in vivo, Digitaria sanguinalis; settings: visual scoring after about 3 weeks vs untreated controls, 100% = plants have died, 0% = like control plants
Outline: as §2

POLCO [5] = assay: Pre-emergence action at 320 g/ha against POLCO; type: in vivo, Fallopia convolvulus (Polygonum convolvulus); settings: visual scoring after about 3 weeks vs untreated controls
Outline: (§4)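 Visual scoring in percent against untreated controls, about 3 weeks after treatment, where 100% means dead plants and 0% means no difference. Compounds were applied as aqueous suspension or emulsion (WP or EC, plus 0.5% additive) onto soil covering freshly sown seeds, at 600 l/ha water.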

ECHCG [6] = assay: Post-emergence action against ECHCG, 1.28 kg/ha; type: in vivo, Echinochloa crus-galli; settings: dosage 1280 g/ha, visual rating about 3 weeks after treatment vs untreated controls
Outline: as §3

AMARE [7] = assay: Pre-emergence action at 320 g/ha against AMARE; type: in vivo, Amaranthus retroflexus; settings: visual scoring after about 3 weeks vs untreated controls
Outline: as §4

MATIN [8] = assay: Post-emergence action against MATIN, 1.28 kg/ha; type: in vivo, Tripleurospermum inodorum (Matricaria inodora); settings: dosage 1280 g/ha, visual rating about 3 weeks after treatment vs untreated controls (100% = plants died)
Outline: as §3

VIOTR = assay: Pre-emergence action at 320 g/ha against VIOTR; type: in vivo, Viola tricolor; settings: dosage 320 g/ha
Outline: as §4

POAAN [9] = assay: Pre-emergence action against POAAN, 1280 g/ha; type: in vivo, Poa annua; settings: visual scoring after about 3 weeks vs untreated controls, 100% = plants have died, 0% = like control plants
Outline: as §2

AVEFA [10] = assay: Post-emergence action at 320 g/ha against AVEFA; type: in vivo; settings: visual rating about 3 weeks after treatment vs untreated controls
From the text: as §1

LOLRI = assay: Pre-emergence action against LOLRI, 1280 g/ha; type: in vivo, Lolium rigidum; settings: visual scoring after about 3 weeks vs untreated controls, 100% = plants have died, 0% = like control plants
Outline: as §2

VERPE [11] = assay: Pre-emergence action at 320 g/ha against VERPE; type: in vivo, Veronica persica; settings: visual scoring after about 3 weeks vs untreated controls
Outline: as §4

STEME [12] = assay: Post-emergence action against STEME, 1.28 kg/ha; type: in vivo, Stellaria media; settings: dosage 1280 g/ha, visual rating about 3 weeks after treatment vs untreated controls (100% = plants died)
Outline: as §3

ALOMY [13] = assay: Post-emergence action against ALOMY, 320 g/ha; type: in vivo, Alopecurus myosuroides; settings: dosage 320 g/ha, visual rating about 3 weeks after treatment vs untreated controls (100% = plants died)
Outline: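 Visual % activity vs untreated controls (0% = like control, 100% = plants dead), scored ~3 wk after treatment. Plants were grown in sandy loam in a greenhouse and sprayed on green parts at the one-leaf stage (2–3 wk post-sowing). Spray: WP or EC in water, 0.5% additive, 600 l/ha.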

MATIN [14] = assay: Pre-emergence action against MATIN, 1280 g/ha; type: in vivo, Tripleurospermum inodorum (Matricaria inodora); settings: scored visually after about 3 weeks vs untreated controls (100% = plants have died)
Outline: as §2

ECHCG [15] = assay: Pre-emergence action against ECHCG, 1280 g/ha; type: in vivo, Echinochloa crus-galli; settings: visual scoring after about 3 weeks vs untreated controls, 100% = plants have died, 0% = like control plants
Outline: as §2

AMARE [16] = assay: Pre-emergence action against AMARE, 1280 g/ha; type: in vivo, Amaranthus retroflexus; settings: scored visually after about 3 weeks vs untreated controls (100% = plants have died)
Outline: as §2

SETVI [17] = assay: Post-emergence action against SETVI, 1.28 kg/ha; type: in vivo, Setaria viridis; settings: dosage 1280 g/ha, visual rating about 3 weeks after treatment vs untreated controls
Outline: as §3

AVEFA [18] = assay: Pre-emergence action at 320 g/ha against AVEFA; type: in vivo; settings: visual scoring after about 3 weeks vs untreated controls
Outline: as §4

SETVI [19] = assay: Pre-emergence action against SETVI, 1280 g/ha; type: in vivo, Setaria viridis; settings: visual scoring after about 3 weeks vs untreated controls, 100% = plants have died, 0% = like control plants
Outline: as §2

DIGSA [20] = assay: Post-emergence action at 320 g/ha against DIGSA; type: in vivo, Digitaria sanguinalis; settings: dosage 320 g/ha, visual rating about 3 weeks after treatment vs untreated controls (100% = plants died)
From the text: as §1

ABUTH [21] = assay: Pre-emergence action against ABUTH, 1280 g/ha; type: in vivo, Abutilon theophrasti; settings: scored visually after about 3 weeks vs untreated controls (100% = plants have died)
Outline: as §2

MATIN [22] = assay: Pre-emergence action at 320 g/ha against MATIN; type: in vivo, Tripleurospermum inodorum (Matricaria inodora); settings: visual scoring after about 3 weeks vs untreated controls
Outline: as §4

POLCO [23] = assay: Post-emergence action at 320 g/ha against POLCO; type: in vivo, Fallopia convolvulus (Polygonum convolvulus); settings: visual rating about 3 weeks after treatment vs untreated controls
From the text: as §1

AMARE [24] = assay: Post-emergence action against AMARE, 1.28 kg/ha; type: in vivo, Amaranthus retroflexus; settings: dosage 1280 g/ha, visual rating about 3 weeks after treatment vs untreated controls (100% = plants died)
Outline: as §3

SETVI [25] = assay: Post-emergence action at 320 g/ha against SETVI; type: in vivo, Setaria viridis; settings: visual rating about 3 weeks after treatment vs untreated controls
From the text: as §1

DIGSA [26] = assay: Pre-emergence action at 320 g/ha against DIGSA; type: in vivo, Digitaria sanguinalis; settings: visual scoring after about 3 weeks vs untreated controls
Outline: as §4

VERPE [27] = assay: Pre-emergence action against VERPE, 1280 g/ha; type: in vivo, Veronica persica; settings: scored visually after about 3 weeks vs untreated controls (100% = plants have died)
Outline: as §2

STEME [28] = assay: Pre-emergence action against STEME, 1280 g/ha; type: in vivo, Stellaria media; settings: scored visually after about 3 weeks vs untreated controls (100% = plants have died)
Outline: as §2

DIGSA [29] = assay: Post-emergence action against DIGSA, 1.28 kg/ha; type: in vivo, Digitaria sanguinalis; settings: dosage 1280 g/ha, visual rating about 3 weeks after treatment vs untreated controls
Outline: as §3

VERPE [30] = assay: Post-emergence action against VERPE, 1.28 kg/ha; type: in vivo, Veronica persica; settings: dosage 1280 g/ha, visual rating about 3 weeks after treatment vs untreated controls (100% = plants died)
Outline: as §3

Question: With CCOC(=O)COc1nn(-c2ccccc2F)c(-c2cncnc2)c1Br [VI-001] as the compound, how does the “Post-emergence action against ABUTH in %” value (ABUTH [1]) read?
Answer: Its value is 80%.

Question: What about the “Pre-emergence action against ALOMY” value (ALOMY [2]) of the same compound?
Answer: The value was 90%.

Question: What about the “Post-emergence action against POAAN” value (POAAN [3]) of the same compound?
Answer: Its value is 100%.

Question: And the “Pre-emergence action against DIGSA” value (DIGSA [4])?
Answer: Its value is 90%.

Question: And the “Pre-emergence action against POLCO in %” value (POLCO [5])?
Answer: Its value is 100%.

Question: And the “Post-emergence action against ECHCG” value (ECHCG [6])?
Answer: The value was 100%.

Question: And the “Pre-emergence action against AMARE in %” value (AMARE [7])?
Answer: The value was 100%.

Question: And the “Post-emergence action against MATIN” value (MATIN [8])?
Answer: Its value is 90%.

Question: What about the “Pre-emergence action against VIOTR in %” value (VIOTR) of the same compound?
Answer: The value was 100%.

Question: And the “Pre-emergence action against POAAN” value (POAAN [9])?
Answer: The value was 100%.

Question: What about the “Post-emergence action against AVEFA in %” value (AVEFA [10]) of the same compound?
Answer: Its value is 80%.

Question: What about the “Pre-emergence action against LOLRI” value (LOLRI) of the same compound?
Answer: The value was 100%.

Question: What about the “Pre-emergence action against VERPE in %” value (VERPE [11]) of the same compound?
Answer: The value was 100%.

Question: And the “Post-emergence action against STEME” value (STEME [12])?
Answer: Its value is 100%.

Question: And the “Post-emergence action against ALOMY” value (ALOMY [13])?
Answer: The value was 90%.

Question: And the “Pre-emergence action against MATIN” value (MATIN [14])?
Answer: Its value is 100%.

Question: What about the “Pre-emergence action against ECHCG” value (ECHCG [15]) of the same compound?
Answer: The value was 100%.

Question: And the “Pre-emergence action against AMARE” value (AMARE [16])?
Answer: Its value is 100%.

Question: And the “Post-emergence action against SETVI” value (SETVI [17])?
Answer: Its value is 100%.

Question: And the “Pre-emergence action against AVEFA in %” value (AVEFA [18])?
Answer: Its value is 90%.

Question: What about the “Pre-emergence action against SETVI” value (SETVI [19]) of the same compound?
Answer: The value was 100%.

Question: What about the “Post-emergence action at 320 g/ha against DIGSA in %” value (DIGSA [20]) of the same compound?
Answer: Its value is 90%.

Question: What about the “Pre-emergence action against ABUTH” value (ABUTH [21]) of the same compound?
Answer: Its value is 90%.

Question: And the “Pre-emergence action against MATIN in %” value (MATIN [22])?
Answer: The value was 90%.

Question: And the “Post-emergence action against POLCO in %” value (POLCO [23])?
Answer: Its value is 90%.

Question: What about the “Post-emergence action against AMARE” value (AMARE [24]) of the same compound?
Answer: The value was 90%.

Question: And the “Post-emergence action against SETVI in %” value (SETVI [25])?
Answer: The value was 80%.

Question: And the “Pre-emergence action against DIGSA in %” value (DIGSA [26])?
Answer: Its value is 100%.

Question: What about the “Pre-emergence action against VERPE” value (VERPE [27]) of the same compound?
Answer: Its value is 100%.

Question: And the “Pre-emergence action against STEME” value (STEME [28])?
Answer: The value was 100%.

Question: What about the “Post-emergence action against DIGSA” value (DIGSA [29]) of the same compound?
Answer: Its value is 100%.

Question: And the “Post-emergence action against VERPE” value (VERPE [30])?
Answer: Its value is 100%.
